Results reported in article PMC10286969, “Characterization of the biochemical activity and tumor-promoting role of the dual protein methyltransferase METL-13/METTL13 in Caenorhabditis elegans” (PLOS ONE, 2023).

Molecular target: T1, MT13-C (C-terminal MTase domain fragment of METL-13) (Caenorhabditis elegans, UniProt Q17539)
T1 construct: C-terminal methyltransferase fragment, residues 213-656, N-terminal His6 tag (pET28a), expressed in E. coli, Ni-NTA purified
T1 sequence (Q17539 213-656): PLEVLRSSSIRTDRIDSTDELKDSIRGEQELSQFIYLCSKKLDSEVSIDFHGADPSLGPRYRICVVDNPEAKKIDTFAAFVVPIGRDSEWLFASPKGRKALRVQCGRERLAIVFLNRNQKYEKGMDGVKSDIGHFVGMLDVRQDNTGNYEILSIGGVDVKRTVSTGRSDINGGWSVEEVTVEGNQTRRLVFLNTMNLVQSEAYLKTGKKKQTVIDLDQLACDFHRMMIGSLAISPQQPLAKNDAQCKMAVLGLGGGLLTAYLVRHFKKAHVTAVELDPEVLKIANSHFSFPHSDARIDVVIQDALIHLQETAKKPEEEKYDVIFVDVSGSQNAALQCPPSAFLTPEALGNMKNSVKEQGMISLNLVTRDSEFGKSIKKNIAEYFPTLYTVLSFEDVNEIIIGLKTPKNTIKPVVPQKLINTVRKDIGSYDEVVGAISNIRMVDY
Experiment: in vitro methyltransferase assay, SDS-PAGE fluorography
Type: biochemical
Conditions: methyl donor; protein substrate recombinant human eEF1A1 with C-terminal His tag (N-terminal G2 methylation); labelled compound (tritium); pH 7.4, 100 mM NaCl, 10% glycerol, 30 °C, 1 h

`C[S+](CC[C@H](N)C(=O)O)C[C@H]1O[C@@H](n2cnc3c(N)ncnc32)[C@H](O)[C@@H]1O` (stereo partly shown) [[^3H]-AdoMet] was tested, and the “in vitro methyltransferase assay, SDS-PAGE fluorography” value was “C. elegans MT13-N or MT13-C as enzymes, human eEF1A1 as the substrate and [^3H]AdoMet”.
